{"source": "patent US9464076B2", "about": "“Benzothiophene derivative” (Daiichi Sankyo Company, Limited, priority 2013, dated 2016)", "key": {"[1]": {"system": "Male C57BL/6 Cr mice", "assay": "Test on suppression of phencyclidine-induced hyperlocomotion in mice", "assay_type": "in vivo, mouse", "details": "locomotor activity, test compound 10 mg/kg oral, phencyclidine 5 mg/kg s.c. approx. 1 hour later, measured for 1 hour; for inhibition in vivo at 10 mg/kg: Mus musculus, po, 1 h", "procedure": "Male C57BL/6 Cr mice (Japan SLC, Inc.) (8 weeks old) were used in the experiment. A test compound was suspended at 1 mg/mL in a 0.5% hydroxypropylcellulose solution to prepare a suspension for administration. The suspension of the test compound or a solvent (0.5% hydroxypropylcellulose solution) was orally administered at a dose of 10 mL/kg to each mouse. After the administration, the mouse was immediately placed in a locomotor activity measurement apparatus (Muromachi Kikai Co., Ltd., locomotor activity measurement system SUPERMEX). Approximately 1 hour later, phencyclidine (5 mg/10 mL/kg) or a solvent (10 mL/kg saline) was subcutaneously administered to the mouse. The locomotor activity was measured from immediately after the subcutaneous administration to 1 hour later.\nPercent inhibition exceeding 100 means that when the activity of the phencyclidine administration control group was defined as 100, the activity of the group given a test compound was lower than that of the solvent administration control group."}, "[2]": {"system": "Male C57BL/6 Cr mice", "assay": "Test on suppression of phencyclidine-induced hyperlocomotion in mice", "assay_type": "in vivo", "details": "Mus musculus, oral, calculated by the linear regression method"}, "[3]": {"target": "PDE10A (Homo sapiens (Human), UniProt Q9Y233)", "sequence (Q9Y233 whole entry)": "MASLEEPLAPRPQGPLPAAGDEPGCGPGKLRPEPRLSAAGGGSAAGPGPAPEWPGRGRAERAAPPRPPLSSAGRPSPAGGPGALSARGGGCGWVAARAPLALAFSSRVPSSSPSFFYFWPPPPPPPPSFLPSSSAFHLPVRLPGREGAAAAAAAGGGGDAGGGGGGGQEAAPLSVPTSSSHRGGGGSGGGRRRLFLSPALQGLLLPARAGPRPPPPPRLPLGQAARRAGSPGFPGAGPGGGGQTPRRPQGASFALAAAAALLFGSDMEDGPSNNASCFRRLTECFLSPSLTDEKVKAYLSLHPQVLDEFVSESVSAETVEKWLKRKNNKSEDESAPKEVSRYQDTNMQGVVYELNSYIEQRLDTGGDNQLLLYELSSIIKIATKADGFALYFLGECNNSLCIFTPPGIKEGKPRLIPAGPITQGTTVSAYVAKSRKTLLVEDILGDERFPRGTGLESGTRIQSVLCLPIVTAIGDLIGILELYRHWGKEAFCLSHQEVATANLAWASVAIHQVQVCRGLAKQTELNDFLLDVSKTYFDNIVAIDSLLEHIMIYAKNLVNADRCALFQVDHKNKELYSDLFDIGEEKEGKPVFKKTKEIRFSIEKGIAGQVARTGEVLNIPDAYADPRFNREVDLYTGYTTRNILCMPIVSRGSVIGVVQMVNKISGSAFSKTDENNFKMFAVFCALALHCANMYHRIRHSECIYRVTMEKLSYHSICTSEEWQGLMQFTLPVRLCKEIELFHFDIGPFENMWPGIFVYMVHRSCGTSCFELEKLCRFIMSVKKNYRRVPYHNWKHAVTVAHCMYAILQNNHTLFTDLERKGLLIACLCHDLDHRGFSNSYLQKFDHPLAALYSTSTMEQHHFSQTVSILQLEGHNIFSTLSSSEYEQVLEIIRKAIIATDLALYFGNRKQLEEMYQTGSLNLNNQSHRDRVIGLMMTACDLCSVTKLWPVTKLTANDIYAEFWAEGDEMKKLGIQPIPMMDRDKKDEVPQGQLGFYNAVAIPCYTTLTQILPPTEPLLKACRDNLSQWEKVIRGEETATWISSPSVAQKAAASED", "assay": "Measurement of PDE10A inhibitory activity-2 (PDE10A fraction prepared from MOLT-4 cells)", "assay_type": "biochemical", "details": "PDE10A fraction from MOLT-4 cells (peak around 250 mM NaCl)", "summary_of_the_method": "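Enzyme source was a PDE10A-containing fraction from MOLT-4 cell soluble extract, resolved by HiTrap Q anion exchange with a 0–0.8 M NaCl gradient and selected by cAMP-hydrolysing activity. IC50 determined with this fraction by the same procedure as the preceding PDE10A assay.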"}, "[4]": {"target": "PDE10A (H-PDE10A2, Human Phosphodiesterase 10A2) (Homo sapiens (Human), UniProt Q9Y233)", "sequence (Q9Y233 267-1055)": "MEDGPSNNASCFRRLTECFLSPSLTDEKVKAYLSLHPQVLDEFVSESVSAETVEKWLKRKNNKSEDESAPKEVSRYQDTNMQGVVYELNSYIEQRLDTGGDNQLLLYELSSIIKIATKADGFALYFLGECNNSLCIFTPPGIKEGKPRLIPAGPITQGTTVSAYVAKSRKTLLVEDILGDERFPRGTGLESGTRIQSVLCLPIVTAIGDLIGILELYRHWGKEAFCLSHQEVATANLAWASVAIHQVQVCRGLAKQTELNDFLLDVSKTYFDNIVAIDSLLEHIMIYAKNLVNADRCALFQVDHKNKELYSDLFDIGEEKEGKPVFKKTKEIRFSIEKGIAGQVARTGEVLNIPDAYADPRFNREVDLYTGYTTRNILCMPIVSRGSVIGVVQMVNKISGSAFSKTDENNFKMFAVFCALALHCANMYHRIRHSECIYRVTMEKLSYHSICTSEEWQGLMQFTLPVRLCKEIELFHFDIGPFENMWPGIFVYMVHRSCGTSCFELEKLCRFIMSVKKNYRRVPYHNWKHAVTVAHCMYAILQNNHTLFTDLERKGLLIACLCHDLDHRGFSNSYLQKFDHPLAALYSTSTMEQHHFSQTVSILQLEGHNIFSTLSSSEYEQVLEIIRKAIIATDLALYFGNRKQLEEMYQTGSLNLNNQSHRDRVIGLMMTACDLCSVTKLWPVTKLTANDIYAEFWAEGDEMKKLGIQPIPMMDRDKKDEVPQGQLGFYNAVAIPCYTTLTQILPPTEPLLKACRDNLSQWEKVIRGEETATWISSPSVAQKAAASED", "assay": "Measurement of PDE10A inhibitory activity-1 (3H-cAMP, recombinant enzyme)", "assay_type": "biochemical", "details": "H-PDE10A2, 64 nM cAMP, 25° C., 2 hours", "procedure": "To a solution containing 20 mM Tris-HCl (pH 7.5), 1 mM MgCl2, 100 μM EDTA, 330 μg/ml bovine serum albumin, 50 kU/ml 5′-nucleotidase, 0.1 μCi ^3H-cAMP (64 nM cAMP), and PDE10A (H-PDE10A2, Human Phosphodiesterase 10A2, Scottish Biomedical), a test compound was added, and the mixture was reacted at 25° C. for 2 hours. To the reaction solution, QAE-Sephadex (17-0190-01, GE Healthcare Japan Corp.) suspended in 10 mM HEPES-Na (pH 7.0) (hereinafter, also referred to as a “QAE-Sephadex suspension”) was added, and the mixture was shaken for 1 minute and left standing for 5 minutes to obtain a supernatant. To the supernatant, a QAE-Sephadex suspension was further added, and the mixture was shaken for 1 minute and left standing for 5 minutes. Then, the obtained supernatant was transferred to LumaPlate (PerkinElmer, Inc.) and assayed using a radiation counter (TopCount NXT, PerkinElmer, Inc.).\nThe value of the sample reacted without the addition of both a test compound and PDE10A was defined as 0%, and the value of the sample reacted in the presence of PDE10A without the addition of a test compound was defined as 100%."}}, "note": "Structures can show the parent of a compound that is named as a salt.", "data": [{"compound": "COCc1ccc(C(C)=O)c2sc(C(=O)Nc3ccc4c(CN5CCOCC5)cccc4n3)c(C)c12.Cl", "note": "[Example 61, 7-Acetyl-4-(methoxymethyl)-3-methyl-N-(5-(morpholinomethyl)quinolin-2-yl)benzo[b]thiophene-2-carboxamide hydrochloride]", "values": [{"measurement": "inhibition in vivo at 10 mg/kg", "setting": "[1]", "result": 122, "unit": "%"}, {"measurement": "ED50", "setting": "[2]", "result": 5.7, "unit": "mg/kg"}]}, {"compound": "COCc1ccc(C(C)=O)c2sc(C(=O)Nc3ccc4c(CO)cccc4n3)c(C)c12.Cc1ccc(S(=O)(=O)O)cc1", "note": "[Example 81, 7-Acetyl-N-(5-(hydroxymethyl)quinolin-2-yl)-4-(methoxymethyl)-3-methylbenzo[b]thiophene-2-carboxamide p-toluenesulfonate]", "values": [{"measurement": "% inhibition", "setting": "[1]", "result": 122, "unit": "%"}, {"measurement": "ED50", "setting": "[2]", "result": 3.3, "unit": "mg/kg"}]}, {"compound": "COCc1ccc(C(C)=O)c2sc(C(=O)Nc3ccc4c(CN5CC[C@@H](O)C5)cccc4n3)c(C)c12", "note": "[Example 64, (R)-7-Acetyl-N-(5-((3-hydroxypyrrolidin-1-yl)methyl)quinolin-2-yl)-4-(methoxymethyl)-3-methylbenzo[b]thiophene-2-carboxamide dihydrochloride]", "values": [{"measurement": "inhibition in vivo at 10 mg/kg", "setting": "[1]", "result": 109, "unit": "%"}, {"measurement": "IC50", "setting": "[3]", "result": 0.76, "unit": "nM"}, {"measurement": "ED50", "setting": "[2]", "result": 7.2, "unit": "mg/kg"}]}, {"compound": "COCc1ccc(C(C)=O)c2sc(C(=O)Nc3cc(CN4CC[C@H](O)C4)c4ccccc4n3)c(C)c12", "note": "[Example 38, (S)-7-Acetyl-N-(4-((3-hydroxypyrrolidin-1-yl)methyl)quinolin-2-yl)-4-(methoxymethyl)-3-methylbenzo[b]thiophene-2-carboxamide]", "values": [{"measurement": "IC50", "setting": "[4]", "result": 0.42, "unit": "nM"}, {"measurement": "inhibition in vivo at 10 mg/kg", "setting": "[1]", "result": 88, "unit": "%"}, {"measurement": "IC50", "setting": "[3]", "result": 0.23, "unit": "nM"}, {"measurement": "ED50", "setting": "[2]", "result": 7, "unit": "mg/kg"}]}, {"compound": "COCc1ccc(C(C)=O)c2sc(C(=O)Nc3cc(CN4CC[C@@H](O)C4)c4ccccc4n3)c(C)c12", "note": "[Example 39, (R)-7-Acetyl-N-(4-((3-hydroxypyrrolidin-1-yl)methyl)quinolin-2-yl)-4-(methoxymethyl)-3-methylbenzo[b]thiophene-2-carboxamide]", "values": [{"measurement": "IC50", "setting": "[4]", "result": 0.41, "unit": "nM"}, {"measurement": "inhibition in vivo at 10 mg/kg", "setting": "[1]", "result": 103, "unit": "%"}, {"measurement": "IC50", "setting": "[3]", "result": 0.35, "unit": "nM"}, {"measurement": "ED50", "setting": "[2]", "result": 3.1, "unit": "mg/kg"}]}, {"compound": "COCc1ccc(C(C)=O)c2sc(C(=O)Nc3ccc4c(C(=O)N5CC(OC)C5)cccc4n3)c(C)c12.Cc1ccc(S(=O)(=O)O)cc1", "note": "[Example 106, 7-Acetyl-N-(5-((3-methoxyazetidin-1-yl)carbonyl)quinolin-2-yl)-4-(methoxymethyl)-3-methylbenzo[b]thiophene-2-carboxamide p-toluenesulfonate]", "values": [{"measurement": "% inhibition", "setting": "[1]", "result": 87, "unit": "%"}, {"measurement": "IC50", "setting": "[3]; p-toluenesulfonate", "result": 0.5, "unit": "nM"}, {"measurement": "ED50", "setting": "[2]", "result": 2.2, "unit": "mg/kg"}]}, {"compound": "COCc1cccc2nc(NC(=O)c3sc4c(C(C)=O)ccc(COC)c4c3C)ccc12.Cl", "note": "[Example 68, 7-Acetyl-4-(methoxymethyl)-N-(5-(methoxymethyl)quinolin-2-yl)-3-methylbenzo[b]thiophene-2-carboxamide hydrochloride]", "values": [{"measurement": "IC50", "setting": "[4]; hydrochloride", "result": 1.9, "unit": "nM"}, {"measurement": "% inhibition", "setting": "[1]", "result": 121, "unit": "%"}, {"measurement": "IC50", "setting": "[3]; hydrochloride", "result": 0.93, "unit": "nM"}, {"measurement": "ED50", "setting": "[2]", "result": 3.6, "unit": "mg/kg"}]}, {"compound": "COCc1cccc2nc(NC(=O)c3sc4c(C(C)=O)ccc(COC)c4c3C)ccc12", "note": "[Example 67, 7-Acetyl-4-(methoxymethyl)-N-(5-(methoxymethyl)quinolin-2-yl)-3-methylbenzo[b]thiophene-2-carboxamide]", "values": [{"measurement": "IC50", "setting": "[4]", "result": 1.8, "unit": "nM"}]}, {"compound": "Br.COCc1ccc(C(C)=O)c2sc(C(=O)Nc3ccc4c(CS(C)(=O)=O)cccc4n3)c(C)c12", "note": "[Example 112, 7-Acetyl-4-(methoxymethyl)-3-methyl-N-(5-((methylsulfonyl)methyl)quinolin-2-yl)benzo[b]thiophene-2-carboxamide hydrobromide]", "values": [{"measurement": "IC50", "setting": "[4]; hydrobromide", "result": 0.84, "unit": "nM"}, {"measurement": "% inhibition", "setting": "[1]", "result": 57, "unit": "%"}]}, {"compound": "COCc1ccc(C(C)=O)c2sc(C(=O)Nc3cc(C(C)(C)O)c4ccccc4n3)c(C)c12", "note": "[Example 28, 7-Acetyl-N-(4-(2-hydroxypropan-2-yl)quinolin-2-yl)-4-(methoxymethyl)-3-methylbenzo[b]thiophene-2-carboxamide hydrobromide]", "values": [{"measurement": "IC50", "setting": "[4]; hydrobromide", "result": 2, "unit": "nM"}]}, {"compound": "COCc1cccc2nc(NC(=O)c3sc4c(C(C)=O)ccc(COC)c4c3C)ccc12", "note": "[Example 69, 7-Acetyl-4-(methoxymethyl)-N-(5-(methoxymethyl)quinolin-2-yl)-3-methylbenzo[b]thiophene-2-carboxamide methanesulfonate]", "values": [{"measurement": "% inhibition", "setting": "[1]", "result": 81, "unit": "%"}, {"measurement": "IC50", "setting": "[3]; methanesulfonate", "result": 0.38, "unit": "nM"}, {"measurement": "ED50", "setting": "[2]", "result": 3, "unit": "mg/kg"}]}, {"compound": "COCc1ccc(C(C)=O)c2sc(C(=O)Nc3ccc4c(CS(C)(=O)=O)cccc4n3)c(C)c12", "note": "[Example 110, 7-Acetyl-4-(methoxymethyl)-3-methyl-N-(5-((methylsulfonyl)methyl)quinolin-2-yl)benzo[b]thiophene-2-carboxamide hydrochloride]", "values": [{"measurement": "IC50", "setting": "[4]; hydrochloride", "result": 1.4, "unit": "nM"}, {"measurement": "inhibition in vivo at 10 mg/kg", "setting": "[1]", "result": 76, "unit": "%"}, {"measurement": "IC50", "setting": "[3]", "result": 0.23, "unit": "nM"}]}, {"compound": "COCc1ccc(C(C)=O)c2sc(C(=O)Nc3ccc4c(C(=O)N5CC(OC)C5)cccc4n3)c(C)c12", "note": "[Example 102, 7-Acetyl-N-(5-((3-methoxyazetidin-1-yl)carbonyl)quinolin-2-yl)-4-(methoxymethyl)-3-methylbenzo[b]thiophene-2-carboxamide]", "values": [{"measurement": "IC50", "setting": "[4]", "result": 0.7, "unit": "nM"}, {"measurement": "% inhibition", "setting": "[1]", "result": 120, "unit": "%"}, {"measurement": "IC50", "setting": "[3]", "result": 0.3, "unit": "nM"}]}, {"compound": "COCc1ccc(C(C)=O)c2sc(C(=O)Nc3ccc4c(CS(C)(=O)=O)cccc4n3)c(C)c12", "note": "[Example 111, 7-Acetyl-4-(methoxymethyl)-3-methyl-N-(5-((methylsulfonyl)methyl)quinolin-2-yl)benzo[b]thiophene-2-carboxamide methanesulfonate]", "values": [{"measurement": "IC50", "setting": "[4]; methanesulfonate", "result": 1.1, "unit": "nM"}]}]}
